# According to ChEMBL document CHEMBL5370598, “[3H]UR-JG102-A Radiolabeled Cyclic Peptide with High Affinity and Excellent Selectivity for the Neuropeptide Y Y4 Receptor” (J Med Chem, 2023):
# What was measured:
# [1] = biological target: T1, Neuropeptide Y receptor type 4 (Homo sapiens, UniProt P50391); assay: Binding affinity to human Y4R under sodium free condition
# [2] = biological target: T1, Neuropeptide Y receptor type 4; assay: Binding affinity to human Y4R under 140 mM sodium condition
# [3] = biological target: T1, Neuropeptide Y receptor type 4; assay: (§1) Displacement of [3H]-(9S,12S,15S,19R,E)-4-amino-N-((S)-1-(((S)-1-(((S)-1-amino-3-(4-hydroxyphenyl)-1-oxopropan-2-yl)amino)-5-guanidino-1-oxopentan-2-yl)amino)-4-methyl-1-oxopentan-2-yl)-15-(3-guanidinopropyl)-12-(4-hydroxybenzyl)-2,11,14,17,20-pentaoxo-19-(4-(propanamido-2,3-t2)butanamido)-1,3,5,10,13,16,21-heptaazacyclopentacos-3-ene-9-carboxamide from human Y4R expressed in CHO cells coexpressing Gqi5-mtAEQ under hypotonic sodium free buffer condition; format: cell-based; conditions: read-out: Ki
# [4] = biological target: T1, Neuropeptide Y receptor type 4; assay: as §1, with “isotonic” for “hypotonic”, “containing” for “free”; format: cell-based
# [5] = biological target: T1, Neuropeptide Y receptor type 4; assay: Binding affinity to human Y4R under hypotonic sodium free condition
# [6] = biological target: T1, Neuropeptide Y receptor type 4; assay: Binding affinity to human Y4R expressed in CHO cells co-expressing Gqi5-mtAEQ under sodium free buffer condition; format: cell-based
# [7] = biological target: T1, Neuropeptide Y receptor type 4; assay: Binding affinity to human Y4R expressed in CHO cells co-expressing Gqi5-mtAEQ under DPBS condition; format: cell-based
# [8] = biological target: T1, Neuropeptide Y receptor type 4; assay: Binding affinity to human Y4R expressed in CHO cells co-expressing Gqi5-mtAEQ assessed as dissociation constant under sodium free buffer condition; format: cell-based
# [9] = biological target: T1, Neuropeptide Y receptor type 4; assay: Binding affinity to human Y4R expressed in CHO cells co-expressing Gqi5-mtAEQ assessed as dissociation constant preincubated for 20 mins under DPBS condition; format: cell-based
# [10] = biological target: T1, Neuropeptide Y receptor type 4; assay: Binding affinity to human Y4R expressed in CHO cells co-expressing Gqi5-mtAEQ assessed as dissociation constant preincubated for 2 hrs under DPBS condition; format: cell-based
# [11] = biological target: T1, Neuropeptide Y receptor type 4; assay: Binding affinity to human Y4R under 137 mM sodium condition
# [12] = biological target: T1, Neuropeptide Y receptor type 4; assay: Binding affinity to human Y4R expressed in CHO cells co-expressing Gqi5-mtAEQ at 4 degreeC; format: cell-based
# T1 sequence (P50391 whole entry): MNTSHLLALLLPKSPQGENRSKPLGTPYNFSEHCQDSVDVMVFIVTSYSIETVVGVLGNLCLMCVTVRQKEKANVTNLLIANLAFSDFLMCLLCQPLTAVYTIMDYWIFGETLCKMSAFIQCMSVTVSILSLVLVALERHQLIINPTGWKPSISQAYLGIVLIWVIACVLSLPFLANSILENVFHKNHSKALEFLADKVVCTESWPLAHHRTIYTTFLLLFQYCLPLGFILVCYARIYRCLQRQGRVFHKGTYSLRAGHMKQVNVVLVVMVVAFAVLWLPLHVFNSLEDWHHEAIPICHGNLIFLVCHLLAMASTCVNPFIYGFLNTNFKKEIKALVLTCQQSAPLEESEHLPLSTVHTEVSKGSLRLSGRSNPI
Kd [1],Kd [2],Ki [3],Ki ([4]; read-out: Ki),Ki ([4]; read-out: pKi (converted)),Ki [5],Kd [6],Kd [7],Kd [8],Kd [9],Kd [10],Kd [11],Kd [12],SMILES
0.67 nM,9.8 nM,0.39 nM,11 nM,10.2 nM,0.87 nM,–,–,–,–,–,–,–,[3H]CC([3H])C(=O)N[C@H](CCCC[C@@H](N)C(=O)N[C@@H](Cc1ccc(O)cc1)C(=O)N[C@@H](CCCNC(=N)N)C(=O)N[C@@H](CC(C)C)C(=O)N[C@@H](CCCNC(=N)N)C(=O)N[C@@H](Cc1ccc(O)cc1)C(N)=O)C(=O)N[C@@H](Cc1ccc(O)cc1)C(=O)N[C@@H](CCCNC(=N)N)C(=O)N[C@@H](CC(C)C)C(=O)N[C@@H](CCCNC(=N)N)C(=O)N[C@@H](Cc1ccc(O)cc1)C(N)=O (stereo partly drawn)
–,–,–,–,–,–,0.012 nM,0.11 nM,0.002 nM,0.014 nM,0.09 nM,0.11 nM,0.86 nM,[3H]CC([3H])C(=O)NCCCC(=O)N[C@@H]1CC(=O)N[C@@H](CCCNC(=N)N)C(=O)N[C@@H](Cc2ccc(O)cc2)C(=O)N[C@H](C(=O)N[C@@H](CC(C)C)C(=O)N[C@@H](CCCNC(=N)N)C(=O)N[C@@H](Cc2ccc(O)cc2)C(N)=O)CCCN/C(N)=N/C(=O)NCCCCNC1=O (stereo partly drawn)
